These results are taken from ChEMBL document CHEMBL4052752, “Synthesis and evaluation of 1-phenyl-1H-1,2,3-triazole-4-carboxylic acid derivatives as xanthine oxidase inhibitors” (Bioorg Med Chem Lett, 2017).

Each structure is given as a SMILES string.

The first series deals with T1, Xanthine dehydrogenase/oxidase (Bos taurus, UniProt P80457). Briefly: Potency index, ratio of allopurinol IC50 to compound IC50 for bovine xanthine oxidase. The settings on record: cattle.
T1 sequence (P80457 whole entry): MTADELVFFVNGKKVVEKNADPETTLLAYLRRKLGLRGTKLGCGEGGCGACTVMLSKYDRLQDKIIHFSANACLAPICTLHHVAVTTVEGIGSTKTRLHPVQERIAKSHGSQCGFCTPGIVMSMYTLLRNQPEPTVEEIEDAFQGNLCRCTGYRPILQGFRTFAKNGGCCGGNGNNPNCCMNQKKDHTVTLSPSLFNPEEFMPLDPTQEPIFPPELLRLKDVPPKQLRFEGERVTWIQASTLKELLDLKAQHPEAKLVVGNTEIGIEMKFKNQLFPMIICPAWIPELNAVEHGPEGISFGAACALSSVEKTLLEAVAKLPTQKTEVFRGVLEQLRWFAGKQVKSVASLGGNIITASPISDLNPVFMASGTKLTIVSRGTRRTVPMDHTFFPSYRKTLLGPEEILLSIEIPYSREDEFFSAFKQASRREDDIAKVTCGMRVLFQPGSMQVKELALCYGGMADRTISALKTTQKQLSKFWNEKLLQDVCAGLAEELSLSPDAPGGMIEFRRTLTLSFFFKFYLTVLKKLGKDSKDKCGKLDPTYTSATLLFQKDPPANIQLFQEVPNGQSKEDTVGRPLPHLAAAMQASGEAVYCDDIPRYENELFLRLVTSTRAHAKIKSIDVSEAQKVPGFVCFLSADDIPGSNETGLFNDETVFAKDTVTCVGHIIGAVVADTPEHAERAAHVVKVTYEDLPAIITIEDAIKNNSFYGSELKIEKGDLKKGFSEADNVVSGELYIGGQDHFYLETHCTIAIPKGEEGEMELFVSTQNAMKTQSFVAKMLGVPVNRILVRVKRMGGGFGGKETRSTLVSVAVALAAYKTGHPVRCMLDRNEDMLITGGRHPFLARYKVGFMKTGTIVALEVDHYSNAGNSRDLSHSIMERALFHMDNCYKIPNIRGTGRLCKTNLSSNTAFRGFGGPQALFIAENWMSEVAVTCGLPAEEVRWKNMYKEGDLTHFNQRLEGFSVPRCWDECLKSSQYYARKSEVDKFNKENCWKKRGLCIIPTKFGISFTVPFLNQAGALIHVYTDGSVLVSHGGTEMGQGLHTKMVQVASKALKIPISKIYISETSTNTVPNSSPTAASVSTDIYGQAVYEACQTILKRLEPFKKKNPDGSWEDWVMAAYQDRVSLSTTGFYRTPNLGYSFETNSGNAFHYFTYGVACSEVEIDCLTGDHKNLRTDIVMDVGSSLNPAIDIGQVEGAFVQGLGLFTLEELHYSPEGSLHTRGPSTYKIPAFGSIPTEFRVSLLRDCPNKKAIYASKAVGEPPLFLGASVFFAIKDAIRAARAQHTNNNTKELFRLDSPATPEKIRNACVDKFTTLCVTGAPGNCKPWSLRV
For `COc1cccc(COc2ccc(-n3cc(C(=O)O)nn3)cc2C#N)c1`, the “Ratio IC50” value is listed as 36.

For another series, the target named is T1, Xanthine dehydrogenase/oxidase. In words: Inhibition of bovine xanthine oxidase assessed as reduction in uric acid production using xanthine as substrate preincubated for 10 mins followed by substrate addition by spectrophotometric analysis.
Conditions: not given; call rule not given here
The IC50 is the concentration needed to halve the response being measured. Regarding `CC(C)COc1ccc(-n2cc(C(=O)O)nn2)cc1C#N`, the IC50 is 3270 nM.
The same measure, in the same setting: next, `CCC(C)Oc1ccc(-n2cc(C(=O)O)nn2)cc1C#N` (stereo unspecified): 3960 nM.
With `N#Cc1cc(-n2cc(C(=O)O)nn2)ccc1OC1CCCC1`, the IC50 worked out at 1080 nM.
With `CCCCCOc1ccc(-n2cc(C(=O)O)nn2)cc1C#N`, the IC50 was 2850 nM.
As to `CCCOc1ccc(-n2cc(C(=O)O)nn2)cc1C#N`, the IC50 was greater than 30000 nM.
Same read-out and setting: next, `N#Cc1ccc(COc2ccc(-n3cc(C(=O)O)nn3)cc2C#N)cc1`: 850 nM.
With `CC(C)CCOc1ccc(-n2cc(C(=O)O)nn2)cc1C#N`, the IC50 was 1620 nM.
For `CCCCCCCOc1ccc(-n2cc(C(=O)O)nn2)cc1C#N`, the IC50 stood at 1470 nM.
Same read-out and setting: next, `N#Cc1cc(-n2cc(C(=O)O)nn2)ccc1OCc1ccc(Cl)cc1`: 940 nM; `COCCOc1ccc(-n2cc(C(=O)O)nn2)cc1C#N`: 26100 nM; `COc1ccccc1COc1ccc(-n2cc(C(=O)O)nn2)cc1C#N`: 760 nM.
Regarding `COc1cccc(COc2ccc(-n3cc(C(=O)O)nn3)cc2C#N)c1`, the IC50 is 210 nM.
Regarding `CCCCOc1ccc(-n2cc(C(=O)O)nn2)cc1C#N`, the IC50 worked out at 5030 nM.
Turning to `CC(C)Oc1ccc(-n2cc(C(=O)O)nn2)cc1C#N`, the IC50 was determined as 6240 nM.
The same measure, in the same setting: next, `N#Cc1cc(-n2cc(C(=O)O)nn2)ccc1OCc1ccccc1`: 2400 nM.
The same measure, in the same setting: the figure for `CCCCCCOc1ccc(-n2cc(C(=O)O)nn2)cc1C#N` is 1500 nM; for `COc1ccc(COc2ccc(-n3cc(C(=O)O)nn3)cc2C#N)cc1` it is 720 nM.
Turning to `CCCCCCCCOc1ccc(-n2cc(C(=O)O)nn2)cc1C#N`, the IC50 stood at 630 nM.
The same measure, in the same setting: the figure for `N#Cc1cccc(COc2ccc(-n3cc(C(=O)O)nn3)cc2C#N)c1` is 3350 nM.

The target is the same in the next series. Briefly: Mixed-type inhibition of bovine xanthine oxidase by Lineweaver-Burk plot method. The settings on record: cattle.
For `COc1cccc(COc2ccc(-n3cc(C(=O)O)nn3)cc2C#N)c1`, the “inhibition (INH)” value is “Active”.
